Reference: article PMC10815500, “Design of Two New Sulfur Derivatives of Perezone: In Silico Study Simulation Targeting PARP-1 and In Vitro Study Validation Using Cancer Cell Lines” (International Journal of Molecular Sciences, 2024)
Where two headings read alike, the source gives them in different places.

Experiments:
A-549 = assay: MTT cytotoxic assay, A-549 cells; format: cell-based; conditions: Homo sapiens, A549, cancer cell line, 48 h, read-out: Inhibitory concentration (IC50) A-549
Method: (§1) At the end of this time, 20 µL of the MTT solution (5 mg/mL) was added to each well and incubated for 4 h in the dark at 37 °C and 5% CO2. The supernatant was decanted, and the resulting formazan was dissolved in isopropyl alcohol with 4 mM HCl solution and was read in a UV/Vis reader at 590 nm. The results obtained were plotted, and the IC50 was obtained through linear regression.

MDA-MB-231 = assay: MTT cytotoxic assay, MDA-MB-231 cells; format: cell-based; conditions: Homo sapiens, cancer cell line, 48 h, read-out: Inhibitory concentration (IC50) MDA-MB-231
Method: as §1

HELA = assay: MTT cytotoxic assay, Hela cells; format: cell-based; conditions: Homo sapiens, cancer cell line, 48 h, read-out: Inhibitory concentration (IC50) HELA
Method: as §1

MCF-7 = assay: MTT cytotoxic assay, MCF-7 cells; format: cell-based; conditions: Homo sapiens, MCF7, cancer cell line, 48 h, read-out: Inhibitory concentration (IC50) MCF-7
Method: as §1

Rat endothelial cells = assay: MTT cytotoxic assay, healthy endothelial cells; format: cell-based; conditions: Endothelial cell, normal cell line, 48 h, read-out: Inhibitory concentration (IC50) Rat endothelial cells
Method: as §1, with “regression. […]” for “regression.”
(§2) of the incubation, an MTT assay was performed to determine the viability of cells under treatment. Each bar in the chart indicates the percentage means and standard error of the mean. […]
(§3) healthy endothelial cells, VERO cells, and mixed culture of microglia, employing perezone (dotted) as a control. Cells from each line were incubated without control and with increased concentrations of the studied compounds during 48 h (n= 8). At the end of the incubation, an MTT assay was performed to determine the viability of cells under treatment. Each bar in the chart indicates the percentage means and […]
(§4) (1 picture or pasted object on this page, not shown here)

VERO = assay: MTT cytotoxic assay, VERO cells; format: cell-based; conditions: Chlorocebus sabaeus, normal cell line, 48 h, read-out: Inhibitory concentration (IC50) VERO
Method: as §1, with “regression. […]” for “regression.”
as §2, §3, §4

Mix cells = assay: MTT cytotoxic assay, mixed culture of microglia; format: cell-based; conditions: normal cells, 48 h, read-out: Inhibitory concentration (IC50) Mix cells
Method: as §1, with “regression. […]” for “regression.”
as §2, §3, §4

PARP-1 enzyme [1] = target: T1, PARP-1 enzyme (Homo sapiens, UniProt P09874); assay: PARP-1 inhibition assay (colorimetric assay kit)
From the text: Absorbances were obtained at 450 nm using a UV/Vis spectrophotometer E max Precision microplate reader (Molecular Devices, San Jose, CA, USA).

PARP-1 enzyme [2] = target: T1, PARP-1 enzyme; parameters: purchased BPS Bioscience Inc. 80580; conditions: previously demonstrated; read-out: IC50 (PARP-1 inhibition) of perezone and natural derivatives; cited from earlier work

T1 sequence (P09874 whole entry): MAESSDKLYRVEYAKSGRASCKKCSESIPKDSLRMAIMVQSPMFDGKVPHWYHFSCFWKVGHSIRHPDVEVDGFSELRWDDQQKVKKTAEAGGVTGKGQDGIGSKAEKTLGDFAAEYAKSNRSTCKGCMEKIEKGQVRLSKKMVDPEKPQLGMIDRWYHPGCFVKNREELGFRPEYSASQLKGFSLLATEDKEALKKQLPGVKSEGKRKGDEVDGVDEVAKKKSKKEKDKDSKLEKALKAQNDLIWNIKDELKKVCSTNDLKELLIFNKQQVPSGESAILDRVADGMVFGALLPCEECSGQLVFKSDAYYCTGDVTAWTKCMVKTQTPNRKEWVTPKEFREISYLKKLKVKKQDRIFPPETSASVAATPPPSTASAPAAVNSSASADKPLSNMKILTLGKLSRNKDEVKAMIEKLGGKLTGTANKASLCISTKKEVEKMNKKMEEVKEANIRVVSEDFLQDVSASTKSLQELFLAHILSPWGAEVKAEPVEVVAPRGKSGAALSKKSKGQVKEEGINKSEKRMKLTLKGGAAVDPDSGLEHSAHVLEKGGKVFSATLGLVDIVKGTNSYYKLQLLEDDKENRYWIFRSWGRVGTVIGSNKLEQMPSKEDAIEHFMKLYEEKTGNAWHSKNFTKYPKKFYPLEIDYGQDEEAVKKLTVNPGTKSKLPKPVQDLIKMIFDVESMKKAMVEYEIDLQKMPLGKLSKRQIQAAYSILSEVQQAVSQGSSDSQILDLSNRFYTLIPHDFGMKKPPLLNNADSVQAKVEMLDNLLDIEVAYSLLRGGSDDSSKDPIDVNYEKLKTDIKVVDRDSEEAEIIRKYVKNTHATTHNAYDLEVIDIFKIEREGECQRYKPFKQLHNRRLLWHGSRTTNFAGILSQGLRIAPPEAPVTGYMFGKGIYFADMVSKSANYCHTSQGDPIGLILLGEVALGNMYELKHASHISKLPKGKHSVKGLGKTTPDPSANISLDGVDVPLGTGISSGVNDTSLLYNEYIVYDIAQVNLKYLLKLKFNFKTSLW

| IC50 (PARP-1 enzyme [1]) [µM] | SMILES | IC50 (A-549) [µM] | IC50 (MDA-MB-231) [µM] | IC50 (HELA) [µM] | IC50 (MCF-7) [µM] | IC50 (Rat endothelial cells) [µM] | IC50 (VERO) [µM] | IC50 (Mix cells) [µM] | IC50 (PARP-1 enzyme [2]) [µM] |
| --- | --- | --- | --- | --- | --- | --- | --- | --- | --- |
| 0.317 | CC(C)=CCCC(C)C1=C(O)C(=O)C(C)=C(Sc2ccc(F)cc2CO)C1=O (centres unmarked) [Compound 9, 2-((4-fluoro-2-(hydroxymethyl)phenyl)thio)-5-hydroxy-3-methyl-6-(6-methylhept-5-en-2-yl)cyclohexa-2.5-diene-1,4-dione] | > 200 | 145 | 200 | 83.2 | > 200 | 186 | 179 | – |
| – | CC(C)=CCC[C@@H](C)C1=C(O)C(=O)C(C)=C(O)C1=O [Compound 3, hydroxyperezone] | – | – | – | – | – | – | – | 320 |
| – | C/C=C(/C)C(=O)OC1=C([C@H](C)CCC=C(C)C)C(=O)C=C(C)C1=O [Compound 2, perezone angelate] | – | – | – | – | – | – | – | 5.25 |
| 0.32 | CC(C)=CCCC(C)C1=C(O)C(=O)C(C)=C(Sc2ccc(CC(=O)O)cc2)C1=O (centres unmarked) [Compound 10, 2-(4-((hydroxy-2-methyl-5-(6-methylhept-5-en-2-yl)-3,6-dioxocyclohexa-1,4-dien-1-yl)thio)phenyl)acetic acid] | > 200 | > 200 | > 200 | > 200 | > 200 | 168 | > 200 | – |
| – | CC(C)=CCC[C@@H](C)C1=C(O)C(=O)C(C)=CC1=O [Compound 1, perezone] | 144 | 7.8 | 42.3 | 53.2 | > 200 | 312 | 63.1 | 181 |
